Source: article PMC8549791, “Discovery of SARS-CoV-2 M^pro peptide inhibitors from modelling substrate and ligand binding” (Chemical Science, 2021)
Entries after “also recorded” stand apart in the source; their conditions may differ. Read-outs that look alike come from different tables or passages of the source. Ends that are not written are not given here.

Key:
SARS-CoV-2 M^pro [1] = biological target: T1, SARS-CoV-2 M^pro (Severe acute respiratory syndrome coronavirus 2, UniProt P0DTD1); assay: biochemical; type: biochemical; parameters: The main protease (M^pro) of SARS-CoV-2; made in house
SARS-CoV-2 M^pro [2] = biological target: T1, SARS-CoV-2 M^pro; type: biochemical; parameters: The main protease (M^pro) of SARS-CoV-2; made in house
SARS-CoV-2 M^pro [3] = biological target: T1, SARS-CoV-2 M^pro; type: biochemical; parameters: The main protease (M^pro) of SARS-CoV-2; made in house; settings: for depletion of s01 in presence of inhibitor: pH 6.9
M^pro dimer = type: binding, SARS-CoV-2; settings: pH 6.9
SARS-CoV-2 M^pro [4] = biological target: T1, SARS-CoV-2 M^pro; settings: pH 7.5
SARS-CoV-2 M^pro [5] = biological target: T1, SARS-CoV-2 M^pro
SARS-CoV M^pro = settings: cited from earlier work
SARS-CoV-2 M^pro [6] = biological target: T1, SARS-CoV-2 M^pro; assay: biochemical; parameters: The main protease (M^pro) of SARS-CoV-2; made in house; settings: for Hill slope: pH 7.5
SARS-CoV-2 M^pro [7] = biological target: T1, SARS-CoV-2 M^pro; settings: cited from earlier work

Compound | mode of inhibition (SARS-CoV-2 M^pro [1]) | IC50 (SARS-CoV-2 M^pro [1]; IC50 at [S] = 2 µM) [µM] | IC50 (SARS-CoV-2 M^pro [1]; IC50 at [S] = 10 µM) [µM] | IC50 (SARS-CoV-2 M^pro [1]; IC50 at [S] = 20 µM) [µM] | IC50 (SARS-CoV-2 M^pro [1]; IC50 at [S] = 40 µM) [µM] | cleavage products by LCMS (SARS-CoV-2 M^pro [2]) | M^pro dimer/s01-cleavage product complexes in presence of inhibitor (SARS-CoV-2 M^pro [3]) | depletion of s01 in presence of inhibitor (SARS-CoV-2 M^pro [3]) [%] | complexes with M^pro dimer after 1 min (M^pro dimer) | turnover / cleavage (in words) (SARS-CoV-2 M^pro [4]) | turnover (fast/medium/slow) (SARS-CoV-2 M^pro [5]) | substrate ion depletion after 1 min (SARS-CoV-2 M^pro [5]; pH 6.9) [%] | substrate ion depletion after 6 min (SARS-CoV-2 M^pro [5]; pH 6.9) [%] | turnover by SARS-CoV M^pro (in words) (SARS-CoV M^pro) | IC50 (SARS-CoV-2 M^pro [6]) [µM] | Hill slope (SARS-CoV-2 M^pro [6]) | IC50 ratio R (SARS-CoV-2 M^pro [1]) | substrate ion depletion after 12 min (SARS-CoV-2 M^pro [5]; pH 6.9) | mode of inhibition (in words) (SARS-CoV-2 M^pro [7]) | relative catalytic efficiency with SARS-CoV M^pro (in words) (SARS-CoV M^pro)
KYLTWQNSQIN-NH2 [p13] | competitive inhibition | 2.97 ± 0.21 | 4.28 ± 0.8 | 6.77 ± 0.46 | 18.1 ± 0.96 | not observed | the abundance of these complexes was lower than the abundance of M^pro/p13 complexes | 91 |  |  |  |  |  |  |  |  |  |  |  | 
FYPKLQ↓SSQAW [s11] |  |  |  |  |  |  |  |  | complexes of the M^pro dimer and the cleavage products were observed | next preferred substrate for catalysis | fast | > 70 | > 90 | medium turnover |  |  |  |  |  | 
LTINWQKYFNT-NH2 [p15] | competitive inhibition | 8.26 ± 0.06 | 12 ± 0.34 | 18.83 ± 0.18 | 37.7 ± 2.02 | not observed |  | 70 |  |  |  |  |  |  | 5.31 ± 1.08 | 1.17 ± 0.16 | 4.56 |  |  | 
KYTFWQYSQFY-NH2 [p12] | competitive inhibition | 4.53 ± 0.9 | 4.99 ± 0.22 | 7.49 ± 0.04 | 16.3 ± 0.52 | not observed |  | 95 |  |  |  |  |  |  | 5.36 ± 2.17 | 1.25 ± 0.06 | 3.61 |  |  | 
REPMLQ↓SADAQ [s07] |  |  |  |  |  |  |  |  | only M^pro complexes with intact substrates were observed | Slow turnover | slow |  |  | slow turnover |  |  |  | below 50% |  | 
O=c1c2ccccc2[se]n1-c1ccccc1 [Ebselen] | did not support competitive inhibition |  |  |  |  |  |  |  |  |  |  |  |  |  |  |  |  |  | reacts multiple times with M^pro; also recorded: complex mode of inhibition | 
WFTLKQYWQTN-NH2 [p16] | competitive inhibition | 4.79 ± 0.08 | 6.66 ± 0.41 | 10.4 ± 0.53 | 23.2 ± 0.42 | not observed |  | 78 |  |  |  |  |  |  | 3.76 ± 0.51 | 1.19 ± 0.16 | 4.85 |  |  | 
SGVTFQ↓SAVKR [s02] |  |  |  |  |  |  |  |  | complexes of the M^pro dimer and the cleavage products were observed | hydrolysed less efficiently than s11 | medium |  | > 70 | fast turnover |  |  |  | > 90% |  | highest relative efficiencies
